# Test results as given in patent US20110230472A1, “RING-FUSED AZOLE DERIVATIVE HAVING PI3K-INHIBITING ACTIVITY” (Shionogi & Co., Ltd., priority 2008, published 2011).
# pKi: −log10 of the molar value.
# How the values were obtained:
# Solubility test = format: physicochemical; settings: kinetic from dmso stock; artificial intestinal juice pH 6.8, 1% DMSO, 25° C. for 16 hours
# Description: The solubility of a compound was determined under a condition in which 1% DMSO was added. 10 mmol/L compound solution was prepared using DMSO, and then 6 μL of the compound solution was added to 594 μL of artificial intestinal juice in pH 6.8 (to 250 mL of 0.2 mol/L potassium dihydrogen phosphate reagent solution was added 118 mL of 0.2 mol/L NaOH reagent solution and water to provide a final volume of 1000 mL). After standing at 25° C. for 16 hours, the mixed solution was filtered with suction. The filtrate was diluted twice with methanol/water (1/1), and then a concentration in the filtration was measured with HPLC or LC/MS/MS by the absolute calibration method.
# [1] = system: AKT phosphorylation in human monocyte-like cell line THP-1; assay: AKT phosphorylation inhibitory activity in MCP-1-stimulated THP-1 cells (ELISA); format: cell-based; settings: 1 μmol/L solution of each compound, MCP-1 stimulation, read-out: AKT phosphorylation inhibition ratio
# Description: (1) The AKT phosphorylation inhibitory activity of a compound was evaluated according to the following procedure. (2) Human monocyte-like cell line THP-1 was washed with RPMI-1640 media, incubated in the presence of 5% CO2 at 37° C. for 3 hours, washed with Hank's balanced salt solution (HBSS), adjusted to a cell concentration of 6.6×10^6/mL, and then used in an experiment. (3) 30 μL of the cell suspension and 60 μL of each compound solution containing 0.2% DMSO/HBSS were mixed and then preincubated at 37° C. for 5 minutes. 30 μL of HBSS containing 4 μg/mL of MCP-1 was added thereto and then incubated for 30 seconds at 37° C. (4) 30 μl of a cell lysate (20 mmol/L Tris-HCl (pH 7.5), 150 mmol/L NaCl, 1 mmol/L Na2EDTA, 1 mmol/L EGTA, 1% Triton, 2.5 mmol/L sodium pyrophosphate, 1 mmol/L β-glycerophosphate, 1 mmol/L Na3VO4, 1 μg/ml leupeptin, 50 nmol/L APMSF) was added thereto to lyse cells. (5) The amount of AKT phosphorylation in the cell lysate was measured by ELISA method. (6) Anti-phospho-Akt (Ser473) antibodies (clone 193H12, derived from a rabbit) were immobilized onto the solid phase of a micro well plate. 100 μL of the prepared cell lysate was added to the micro well plate, incubated for 2 hours at 37° C., and then washed four times with Phosphate Buffered Saline containing 0.05% Tween-20. (7) An anti-AKT1 antibody (clone 2H10, derived from a mouse) was added thereto, incubated for 1 hour at 37° C., washed similarly, and then reacted with an HRP-labeled anti-mouse IgG antibody. (8) After incubating at 37° C. for 30 minutes and then washing similarly, 100 μL of TMB (3,3′,5,5″-tetramethylbenzidine) was added thereto, followed by reacting at room temperature for 30 minutes. (9) 100 μL of 1 mol/L sulfuric acid was added to quench the color reaction and then the absorbance at 450 nm was measured. (10) A series of diluted cell lysates of a positive control (a sample in the absence of a compound) were used to prepare a calibration curve, the amount of AKT phosphorylation in a sample in the absence of MCP-1 was defined as 0% activity to calculate an inhibition ratio. The measurement was performed for a 1 μmol/L solution of each compound.
# PI-3 kinase γ [2] = target: T1, PI-3 kinase γ (Homo sapiens, UniProt P48736); assay: PI3Kγ inhibitory activity, PI3-kinase HTRF assay (inhibition ratio); format: biochemical; settings: 0.5 h; for inhibition at 50 µM: compound at 50 μM
# T1 sequence (P48736 whole entry): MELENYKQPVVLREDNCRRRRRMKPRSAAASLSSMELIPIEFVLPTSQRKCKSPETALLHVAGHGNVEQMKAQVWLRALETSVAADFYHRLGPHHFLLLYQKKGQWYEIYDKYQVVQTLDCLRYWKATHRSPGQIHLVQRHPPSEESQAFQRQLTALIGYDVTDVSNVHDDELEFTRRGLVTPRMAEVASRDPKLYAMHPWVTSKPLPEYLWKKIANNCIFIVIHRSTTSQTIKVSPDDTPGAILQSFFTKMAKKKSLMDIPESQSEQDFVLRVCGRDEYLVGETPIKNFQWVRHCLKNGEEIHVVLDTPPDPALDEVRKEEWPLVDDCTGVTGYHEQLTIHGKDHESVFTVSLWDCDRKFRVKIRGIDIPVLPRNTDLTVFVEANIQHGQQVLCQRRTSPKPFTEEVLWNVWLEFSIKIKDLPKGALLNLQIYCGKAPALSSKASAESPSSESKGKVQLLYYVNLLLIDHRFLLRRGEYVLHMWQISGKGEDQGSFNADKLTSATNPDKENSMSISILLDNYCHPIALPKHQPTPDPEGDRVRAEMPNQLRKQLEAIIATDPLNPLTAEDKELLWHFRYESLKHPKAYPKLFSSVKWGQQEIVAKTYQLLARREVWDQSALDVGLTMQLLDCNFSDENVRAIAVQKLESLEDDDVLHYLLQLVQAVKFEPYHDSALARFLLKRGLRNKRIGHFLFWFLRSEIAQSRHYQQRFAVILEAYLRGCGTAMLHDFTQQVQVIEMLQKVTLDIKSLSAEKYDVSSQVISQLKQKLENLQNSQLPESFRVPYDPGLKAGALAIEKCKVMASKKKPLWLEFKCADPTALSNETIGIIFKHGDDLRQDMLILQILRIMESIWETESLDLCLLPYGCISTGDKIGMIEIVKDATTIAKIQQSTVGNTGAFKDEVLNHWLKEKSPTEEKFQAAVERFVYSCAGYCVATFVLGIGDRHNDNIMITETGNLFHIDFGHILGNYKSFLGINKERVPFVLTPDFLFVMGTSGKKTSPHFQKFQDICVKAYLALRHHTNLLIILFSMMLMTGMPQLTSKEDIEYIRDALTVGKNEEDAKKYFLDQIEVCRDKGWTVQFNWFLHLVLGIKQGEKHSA
# In short: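 Single-concentration inhibition ratio (50 or 10 μmol/L compound) versus no-compound (100%) and no-enzyme (0%) wells. Reaction: PI-3 kinase γ, PIP2, ATP, MgCl2/DTT, 30 min at RT after 10 min preincubation. Read-out: HTRF 665/620 nm after 18 h detection.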
# Metabolic stability test = format: in vitro ADME; settings: human liver microsome 0.5 mg protein/mL, 1 mmol/L NADPH, 37° C.
# Description: After a subject compound was reacted for a certain time using a pooled human liver microsome commercially available, a reacted sample and an unreacted sample are compared to calculate a survival ratio, and then the degree of metabolism in the liver was evaluated.
# 0.2 mL of a buffer solution (50 mmol/L of Tris-HCl in pH 7.4, 150 mmol/L of potassium chloride, and 10 mmol/L of magnesium chloride) containing a human liver microsome of 0.5 mg protein/mL was reacted in the presence of 1 mmol/L NADPH at 37° C. for 0 or 30 minutes (oxidative reaction). After reacting, 50 μL of the reaction solution was added to 100 μL of a solution of methanol/acetonitrile (1/1 (v/v)), mixed, and then centrifuged at 3000 rpm for 15 minutes. The test compound in the supernatant was quantitated with LC/MS/MS. The amount of the compound at a reaction time of 0 minute was defined as 100% and, based on that, the percentage of the test compound remained after reacting for 30 minutes was calculated.
# PI-3 kinase γ [3] = target: T1, PI-3 kinase γ; assay: PI3Kγ inhibitory activity (Ki value), HTRF; format: biochemical; settings: Ki=IC50/(1+10 μM ATP/Km)
# Description: The PI3Kγ inhibitory activity (Ki value) of a compound was evaluated according to the following procedure:
# 5 μL of a compound solution containing 10% DMSO and 200 μmol/L of a compound was changed to 5 μL of a compound solution containing 10% DMSO and either 200, 64, 20, 6.4, 2, 0.64, or 0.20 μmol/L of the compound (optionally, this is diluted to a lower concentration). Using a method similar to the method for measuring PI3Kγ inhibitory activity, inhibition ratios were measured in the presence of the compound at 50, 16, 5, 1.6, 0.5, 0.16, and 0.05 μmol/L (optionally, a lower concentration). Then an IC50 value was calculated by a logistic approximation method or the linear regression method using two concentrations that across 50% inhibition. Separately, the ATP concentration in the reaction solution (40 μmol/L ATP, 10 mmol/L MgCl2, 5 mmol/L DTT) at the time of the start of a reaction in the absence of the compound was changed to 80, 40, 20, 10, 5, 2.5, 1.25, or 0.625 μmol/L. Then, HTRF ratios were measured by a similar method. The value obtained by subtracting the HTRF ratio at each ATP concentration from the HTRF ratio in the absence of PI-3 kinase γ was defined as the value obtained by multiplying reaction rate (v) at each ATP concentration with a constant. The Michaelis-Menten constant Km was then calculated by the Lineweaver-Burk plot method. The Ki value of a compound was calculated by the following formula.
# Ki=IC50 value/(1+10 μM (test ATP concentration)/Km (μM))
# 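Wherever percentage of the test compound remained after reacting for 30 minutes is given: 100% equals the compound amount at 0 min reaction.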
Structure (SMILES),solubility at 16 h (Solubility test) [µM],inhibition [1] [%],"inhibition at 10 µM (PI-3 kinase γ [2]; PI3Kγ, compound at 10 μM) [%]",percentage of the test compound remained after reacting for 30 minutes (Metabolic stability test) [%],inhibition at 10 µM (PI-3 kinase γ [2]; compound at 10 μmol/L) [%],pKi (PI-3 kinase γ [3]),inhibition at 50 µM (PI-3 kinase γ [2]; PI3Kγ) [%]
CC(=O)Nc1cc2n(n1)CCN2c1ccc2c(c1)CCN(C)C2=O [Compound I-287],> 50,> 99.5,≥ 95,94.9,–,–,–
COc1cc(N2CCc3nc(NC(=O)NCCC(=O)NC(C)C)sc3C2)nc(OC)n1 [Compound I-309],> 50,92,–,93.1,≥ 95,–,–
COc1cc(N2CCc3nc(NC(=O)NCCC(=O)N4CCCC4(C)C)sc3C2)nc(OC)n1 [Compound I-318],> 50,> 99.5,–,–,≥ 95,7.35,–
CN1CCc2cc(N3CCn4nc(NC(=O)c5cncs5)cc43)ccc2C1=O [Compound I-341],> 50,97.8,–,–,≥ 95,–,–
CN1CCc2cc(N3CCn4nc(NC(=O)c5cnco5)cc43)ccc2C1=O [Compound I-348],> 50,> 99.5,–,94.5,≥ 95,–,–
COc1cc(N2CCc3nc(NC(=O)NCCC(=O)NC(C)(C)C)sc3C2)nc(OC)n1 [Compound I-265],–,> 99.5,≥ 95,–,–,7.38,–
COC(=O)[C@H](CC(=O)OC(C)(C)C)NC(=O)Nc1nc2c(s1)CN(c1cc(OC)nc(OC)n1)CC2 [Compound I-277],–,–,≥ 95,–,–,7.44,–
COc1cc(N2CCc3nc(NC(=O)NCCC(=O)N4CCCC4)sc3C2)nc(OC)n1 [Compound I-308],–,98.4,–,92.2,≥ 95,–,–
COC(=O)Nc1cc[nH]c1C(=O)Nc1cc2n(n1)CCN2c1ccc2c(c1)CCN(C)C2=O [Compound I-398],–,–,–,–,≥ 95,7.31,–
CC(=O)Nc1cc2n(n1)CCN2c1ccc2cnccc2c1 [Compound I-284],–,> 99.5,≥ 95,–,–,7.40,–
CNC(=O)Nc1nc2c(s1)CN(c1cncc(OC)n1)CC2 [Compound I-378],> 50,> 99.5,–,–,≥ 95,–,–
CN1CCc2cc(N3CCn4nc(NC(=O)c5cccs5)cc43)ccc2C1=O [Compound I-331],–,93,–,–,84,–,–
CN1CCc2cc(N3CCn4nc(NC(=O)c5cnc(N)s5)cc43)ccc2C1=O [Compound I-380],–,–,–,–,≥ 95,7.49,–
CN1CCc2cc(N3CCn4nc(NC(=O)c5ccsc5)cc43)ccc2C1=O [Compound I-332],–,96,–,87.2,≥ 95,–,–
CC(=O)Nc1cc2n(n1)CCN2c1ccc2c(c1)CCNC2=O [Compound I-292],–,–,–,–,≥ 95,7.37,–
CCOC(=O)CNC(=O)Nc1nc2c(s1)CN(c1cc(OC)nc(OC)n1)CC2 [Compound I-202],–,> 99.5,–,–,–,7.31,≥ 95
CNC(=O)Nc1cc2n(n1)CCN2c1ccc2ncccc2c1 [Compound I-177],> 50,> 99.5,–,–,–,–,≥ 95
COc1cc(N2CCc3nc(NC(C)=O)sc3C2)nc(OC)n1 [Compound I-214],–,> 99.5,–,98.9,–,–,≥ 95
CNC(=O)Nc1cc2n(n1)CCN2c1ccc2cnccc2c1 [Compound I-190],–,> 99.5,–,90.5,–,–,≥ 95
COc1cc(N2CCc3nc(NC(=O)NCCC(=O)N(C)C(C)C)sc3C2)nc(OC)n1 [Compound I-310],–,> 99.5,–,–,≥ 95,7.37,–
COc1cc(N2CCc3nc(NC(=O)Nc4ccon4)sc3C2)nc(OC)n1 [Compound I-303],–,–,–,87.3,94,7.35,–
CN1CCc2cc(N3CCn4nc(NC(=O)c5cnc(NC(=O)OC(C)(C)C)s5)cc43)ccc2C1=O [Compound I-375],–,–,–,–,≥ 95,7.64,–
CC(=O)Nc1cc2n(n1)CCN2c1cccc(Cl)c1 [Compound I-198],> 50,97.3,–,–,–,–,94
CN1CCc2cc(N3CCn4nc(NC(=O)c5ccc(C(=O)NCC(=O)O)s5)cc43)ccc2C1=O [Compound I-415],–,–,–,–,≥ 95,7.47,–
